According to patent US20120058133A1, “INHIBITION OF TRNA SYNTHETASES AND THERAPEUTIC APPLICATIONS THEREOF” (President and Fellows of Harvard College, priority 2009, published 2012):

Experiments:
[1] = test system: murine CD4+ CD25− T cells, CD8+ T cells, B cells; assay: T and B cell activation, proliferation, cytokine production and Th1/Th2/iTreg differentiation; assay type: cell-based, mouse
Description: FIG. 2A, Left, is a graph showing dose response analyses performed on activated carboxyfluorescein succinimidyl ester (CFSE)-labeled CD4^+CD25^− T cells in the presence of DMSO, 40 nM MAZ1310, or increasing concentrations of halofuginone (HF) (1.25-40 nM). CFSE dilution and cell surface CD25 expression were determined 48 hours after activation. Intracellular cytokine production was determined on day 4 or 5 following restimulation with phorbol myristate acetate (PMA) and ionomycin. […] FIG. 2A, Right is a graph showing dose-response analyses of HF effects on CD8^+ T cell or B cell function. Cells were activated in the presence of DMSO, 40 nM MAZ1310, or increasing concentrations of HF (1.25-40 nM). CFSE dilution, cell surface CD25 expression, and intracellular cytokine production were determined as above 2-5 days after activation.
At approximately 10-fold higher concentrations (>20 nM), HF induced a general inhibition of T and B cell activation, proliferation, and effector function (FIG. 2A, 2B).
Purified CD4^+ CD25^− T cells were activated in vitro as previously described (Djuretic et al., Nat. Immunol. 8:145, 2007) using 0.3 μg/ml hamster anti-mouse CD3 (clone 145-2C11) (ATCC—Manassas, Va.) and 0.5 μg/ml hamster anti-mouse CD28 (BD Pharmingen—San Jose, Calif.). Activated cell cultures were differentiated using the following combinations of cytokines and antibodies: iTreg-recombinant human TGFβ1 (3 ng/ml—R&D systems, Minneapolis, Minn.), Th17-TGFβ1 (3 ng/ml) plus recombinant mouse IL-6 (30 ng/ml—R&D systems). Th1 and Th2 differentiation was performed as previously described (Djuretic et al., Nat. Immunol. 8:145, 2007). Human IL-2 supernatant (National Cancer Institute) was used in culture at 0.01 U/ml and was added at 48 hours-post activation when T cells were split into tissue culture wells lacking CD3 and CD28 antibodies, with the exception of Th17 cultures that were maintained in the absence of exogenous IL-2. CD8^+ T cells were activated with 1 μg/ml anti-CD3 and 1 μg/ml anti-CD28 and were expanded in 0.1 U/ml IL-2 until day 6 post activation. CD43-depleted B cells were activated in vitro by culturing with 25 μg/ml LPS (Sigma—St. Louis, Mo.) for 3-4 days in the presence or absence of TGFβ. All reagents (see below) were added at the time of T cell activation and again at 48 hours post activation unless indicated otherwise. For some experiments, purified CD4^+ CD25^− T cells, CD8^+ T cells or B cells were labeled with 1 μM CFSE (Invitrogen) prior to activation in accordance with manufacturer's instructions. Human T cell activation was performed by plating purified monocytes in a 96-well flat bottom plate at a concentration of 2×10^4 cells per well in complete medium overnight. 10^5 purified human memory T cells were added to monocyte cultures in the presence of soluble anti-CD3/anti-CD28 beads (Dynabeads, Invitrogen). T cells were expanded in the presence HF or MAZ1310 for up to 6 days.
Cytokines secreted into media supernatant were measured using the mouse Th1/Th2 cytometric bead array (CBA—BD Pharmingen) in accordance with manufacturers instructions. Briefly, CD4+ CD25− T cells were activated in anti-CD3/anti-CD28-coated tissue culture wells (see above) and supernatants were collected at the indicated times.
For detection of intracellular cytokines in murine cells, cultured T or B cells were stimulated with 10 nM PMA (Sigma) and […] (Sigma) for 4-5 hours in the presence of […] brefeldin A (Sigma). Stimulated cells were harvested, washed with PBS and fixed with PBS plus 4% paraformaldehyde at room temperature for 20 minutes. Cells were then washed with PBS, permeabilized with PBS supplemented with 1% BSA and 0.5% saponin (Sigma) at room temperature for 10 minutes before cytokine-specific antibodies were added and incubated with cells for an additional 20 minutes at room temperature. […]

[2] = test system: primary human memory T cells (CD4+ CD45RO+); assay: IL-17 and IFNγ expression by human memory T cells co-cultured with CD14+ monocytes; assay type: cell-based; details: 100 nM HF, 6 days
Description: FIG. 2F is a set of FACS analyses of purified primary human memory T cells (CD4^+ CD45RO^+) activated in co-culture with CD14^+ monocytes and treated with DMSO, 100 nM HF or 100 nM MAZ1310. T cells were expanded for 6 days and intracellular cytokine expression was determined following restimulation with PMA plus ionomycin.
Primary murine T and B cells were purified by cell sorting. CD4^+ CD25^− T cells were positively selected using CD4 dynabeads and detachabeads (Dynal—Oslo, Norway) per manufacturers instructions followed by nTreg depletion using a CD25 microbead kit (Miltenyi biotech—Auburn, Calif.). Naïve (CD4^+ CD62Lhi CD44lo Foxp3gfp- or CD4^+ CD62Lhi CD44lo CD25^−) T cells were purified from Foxp3gfp or Foxp3ko mice, respectively, by FACS sorting. CD8^+ T cells or B cells were isolated from CD4^− fractions using CD8 negative isolation kit (Dynal) or CD43 negative isolation kit (Miltenyi biotech), respectively. Resting human CD4^+ T cells were isolated from PBMC of healthy human donors using Dynal CD4 Positive Isolation Kit (Invitrogen—Carlsbad, Calif.) as previously described (Sundrud et al., Blood 106:3440, 2005). CD4^+ cells were further purified to obtain memory T cells by staining with PE-conjugated anti-human CD45RO-PE antibodies (BD Biosciences), and sorting on a FACSAria cytometer (BD Biosciences). Following purification, cells were greater than 99% CD4^+ CD45RO^+. […]

MEFs = assay: Total protein synthesis and metabolic activity (Alamar blue) of fibroblasts; assay type: cell-based, mouse
Description: FIG. 26D. HF-inhibition of collagen production is rescued by proline and doesn't affect overall protein synthesis. Cells were pre-incubated with HF with or without proline for 4 hours, and ^35S-methionine and HF with or without proline was added. 24 hours later, conditioned medium and total cell lysate was harvested. New production of Type I procollagen was measured in conditioned medium by Western blot, and bands quantitated using Image J quantitation software. The original blot is shown in FIG. 27; total protein synthesis was measured as TCA-precipitable ^35S in a scintillation counter. Error bars reflect standard deviation of triplicate determinations.
FIG. 29. HF effect on cellular metabolic activity. MEFs were incubated at indicated dose of HF with or without 2 mM proline for 24 hours and tested for metabolic activity using an Alamar blue assay (Invitrogen).

[3] = low concentrations of HF (1-10 nM)

Molecule | Th1 and Th2 differentiation ([1]; low concentrations of tunicamycin) | concentration inducing general inhibition of T and B cell activation, proliferation, and effector function [1] | CD25 upregulation [1, 3] | T cell proliferation [1, 3] | production of IL-2, TNF, or IFNγ [1, 3] | Th1, Th2 or iTreg differentiation (IFNγ, IL-4, or Foxp3 expression) ([1]; low-dose HF) | IFNγ expression in human T cells [2] | percentage of human T cells expressing IL-17 and amount of IL-17 produced [2] | total metabolic activity of fibroblasts (MEFs) | 35S-methionine incorporation into total protein (MEFs; doses inhibiting ECM proteins, 24 hours)
tunicamycin | preferentially impaired Th1 and Th2 differentiation | – | – | – | – | – | – | – | – | –
O=C(CC1NCCCC1O)Cn1cnc2cc(Br)c(Cl)cc2c1=O (racemic) [HF, halofuginone] | – | > 20 nM | did not affect | did not affect | did not affect | failed to modulate | essentially unaffected | greatly reduced | unaffected | did not significantly change
